Usually IC50 stands for the concentration needed to halve the response being measured. A higher IC50 goes with a need for much substance.

The structures appear in SMILES notation. Residues, ends and D or L forms follow the SMILES beside them. *: point of attachment. Benzoyl(4-SO2NH2) = NS(=O)(=O)c1ccc(C(=O)*)cc1

Consider eleven compounds from patent publication US20220283175A1, “METALLOENZYMES FOR BIOMOLECULAR RECOGNITION OF N-TERMINAL MODIFIED PEPTIDES” (Encodia, Inc., priority 2020, published 2022).

One experiment deals with wild-type hCAII protein (Homo sapiens, UniProt P00918). Nature of the experiment: colorimetric IC50 assay (pNPA hydrolysis) with wild-type hCAII. The class given is biochemical. The note with it: for IC50: 300 nM wild-type hCAII; for Fold Enhancement: relative to NTM M64. On the procedure: The colorimetric assay used 300 nM of wild-type carbonic anhydrase incubated in 45 μL of 50 mM MOPS (pH 7.5), 33 mM Na2SO4, and 1 mM EDTA aliquoted into a 96-well, clear, flat-bottom plate. To each column of the plate, a 1/10 dilution series from 1 mM to 0.1 nM of each NTM was added and incubated at 25° C. for 10 minutes to reach binding equilibrium. To this, 1 mM p-nitrophenylacetate (pNPA) was added to each well and screened on a plate reader at 405 nm wavelength. The initial rate of hydrolysis was observed over the first 60 seconds. The slopes versus the concentration of NTM were put into a non-linear regression equation to determine the IC50 of the NTM to the carbonic anhydrase.
The N-terminally modified peptides were then evaluated using colorimetric IC50 assay to determine relative binding affinity of NTM-AAEIR to wild-type hCAII protein based on NTM-AAEIR inhibition capacity. The slopes versus the concentration of NTM-AAEIR were put into a non-linear regression equation to determine the IC50 of the selected NTM-AAEIR peptides to the wild-type hCAII.

The target in experiment [1] is human carbonic anhydrase II (hCAII) (Homo sapiens, UniProt P00918). Nature of the experiment: hCAII functional assay (hydrolysis of p-nitrophenylacetate, pNP release). Type of experiment: biochemical. The note with it: 1 μM hCAII, 500 μM pNP-OAc, 10 min at 37° C. As for the experimental part: A functional assay for hCAII enzyme was set up. Carbonic anhydrase catalyzes the hydrolysis of 4-nitrophenyl acetate (4-NPA) to nitrophenol, which can be monitored by absorbance at 400 nm. The enzymatic carbonic anhydrase assay generally includes 0.2-1.0 μM enzyme and 10-500 μM 4-NPA in 20-200 μL in assay buffer. […] Metal chelating agents (EDTA or EGTA), salt (NaCl, sulfate), detergent (Tween or Triton), and organic additives (acetonitrile, DMSO) may be employed to facilitate enzyme stability and reagent solubility. For the assay, 1 μM human carbonic anhydrase II, 50 mM MOPS (pH 7.6), 33 mM disodium sulfate, and 1 mM EDTA. To generate NTM-modified peptides, azide-derivatized peptides (via azide-PEG-amine and carbodiimide coupling to C-terminus of peptide) were conjugated to DBCO-coupled beads. […] To evaluate P1 dependence of the binding reaction, multiple P1 residues has been tested.

On to `Cc1cc(S(N)(=O)=O)ccc1C(=O)O` [M74, 2-methyl-4-sulfamoylbenzoic acid], for which, on wild-type hCAII protein (free NTM), the concentration for half-maximal inhibition (IC50) stood at 2040 nM and the “Fold Enhancement” value is 0.2.
As to `NS(=O)(=O)c1ccc(C(=O)O)c([N+](=O)[O-])c1` [M67, 2-Nitro-4-sulfamoylbenzoic acid], at wild-type hCAII protein (NTM-AAEIR), the “Fold Enhancement” value is reported as 2.0. At wild-type hCAII protein (free NTM), the midpoint of inhibition, the IC50, lay at 124 nM and the “Fold Enhancement” value amounted to 3.8.
For the compound `NS(=O)(=O)c1ccc(C(=O)O)c(Cl)c1` [M76, 2-Chloro-4-sulfamoylbenzoic acid], the “Fold Enhancement” value on wild-type hCAII protein (NTM-AAEIR) stood at 1.9. In addition, at wild-type hCAII protein (free NTM), the IC50 was 180 nM and the “Fold Enhancement” value is listed as 2.6.
As for `Nc1cc(S(N)(=O)=O)ccc1C(=O)O` [2-NH2, 2-Amino-4-sulfamoylbenzoic acid], on wild-type hCAII protein (free NTM), the half-maximal inhibitory concentration (IC50) amounted to 1380 nM and the “Fold Enhancement” value worked out at 0.3.
Consider `NS(=O)(=O)c1ccc(C(=O)O)c(F)c1` [M75, 2-Fluoro-4-sulfamoylbenzoic acid], for which, on wild-type hCAII protein (NTM-AAEIR), the “Fold Enhancement” value was 2.2. Also, at wild-type hCAII protein (free NTM), half-maximal inhibition (IC50) was put at 224 nM and the “Fold Enhancement” value worked out at 2.1.
For the compound `NS(=O)(=O)c1ccc(C(=O)O)nc1` [M66], on wild-type hCAII protein (free NTM), the IC50 was found to be 992 nM and the “Fold Enhancement” value is listed as 0.5.
Consider `NS(=O)(=O)c1ccc(C(=O)O)cn1` [M65, 6-Sulfamoylpyridine-3-carboxylic acid], for which, on wild-type hCAII protein (NTM-AAEIR), the “Fold Enhancement” value is listed as 0.3. Also, at wild-type hCAII protein (free NTM), half-maximal inhibition (IC50) required 211 nM and the “Fold Enhancement” value turned out to be 2.2.
Consider `COc1cc(S(N)(=O)=O)ccc1C(=O)O` [M73, 2-Methoxy-4-sulfamoylbenzoic acid], for which, on wild-type hCAII protein (free NTM), the concentration for half-maximal inhibition (IC50) was 65400 nM and the “Fold Enhancement” value is given as 0.0.
Consider `C[C@H](NC(=O)[C@H](C)NC(=O)[C@H](Cc1ccccc1)NC(=O)c1ccc(S(N)(=O)=O)cc1)C(=O)N[C@@H](C)C(=O)N[C@@H](CCC(=O)O)C(N)=O` [(SAB)FAAAE] ({Benzoyl(4-SO2NH2)}-FAAAE-NH2), for which, in experiment [1], the IC50 was found to be 45 nM.
The same measure, in the same setting: in the case of `C[C@H](NC(=O)c1ccc(S(N)(=O)=O)cc1)C(=O)N[C@@H](Cc1ccccc1)C(=O)N[C@@H](C)C(=O)N[C@@H](C)C(=O)N[C@@H](CCC(=O)O)C(N)=O` [(SAB)AFAAE] ({Benzoyl(4-SO2NH2)}-AFAAE-NH2) it was 183 nM.
As for `NS(=O)(=O)c1ccc(C(=O)O)cc1F` [M88, 3-Fluoro-4-sulfamoylbenzoic acid], the results for the “Fold Enhancement” value at wild-type hCAII protein (NTM-AAEIR) and at wild-type hCAII protein (free NTM) were 1.6 and 4.3, respectively. The same compound yielded a half-inhibitory concentration (IC50) at wild-type hCAII protein (free NTM) of 110 nM.
